Test results published in PubChem BioAssay (NCI).
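Compound exposure: 48 hours, 5 concentrations, 96-well plates. GI50 = concentration required for 50% inhibition of growth. At the TGI there is no net growth.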

Tests used:
Assay in all cases: growth of human tumour cells (NCI), 48 h
COLO 205 colon = test system: COLO 205 colon
HT29 colon = test system: HT29 colon
CCRF-CEM leukemia = test system: CCRF-CEM leukemia
M14 melanoma = test system: M14 melanoma
HOP-62 NSCLC = test system: HOP-62 NSCLC
NCI-H460 lung = test system: NCI-H460 lung
M19-MEL melanoma = test system: M19-MEL melanoma
DMS 273 small cell lung = test system: DMS 273 small cell lung
MALME-3M melanoma = test system: MALME-3M melanoma
DU-145 prostate = test system: DU-145 prostate

| Compound | TGI (COLO 205 colon) [µM] | TGI (HT29 colon) [µM] | TGI (CCRF-CEM leukemia) [µM] | TGI (M14 melanoma) [µM] | TGI (HOP-62 NSCLC) [µM] | TGI (NCI-H460 lung) [µM] | TGI (M19-MEL melanoma) [µM] | TGI (DMS 273 small cell lung) [µM] | TGI (MALME-3M melanoma) [µM] | TGI (DU-145 prostate) [µM] | GI50 (COLO 205 colon) [µM] | GI50 (HT29 colon) [µM] | GI50 (CCRF-CEM leukemia) [µM] | GI50 (M14 melanoma) [µM] | GI50 (DU-145 prostate) [µM] | GI50 (HOP-62 NSCLC) [µM] | GI50 (NCI-H460 lung) [µM] | GI50 (MALME-3M melanoma) [µM] | GI50 (DMS 273 small cell lung) [µM] |
| --- | --- | --- | --- | --- | --- | --- | --- | --- | --- | --- | --- | --- | --- | --- | --- | --- | --- | --- | --- |
| C=C(C#N)C1OCC2OC(C)(C)OC21 (configuration not stated) | 30.3 | > 100 | 48.8 | 30.5 | > 100 | 57.4 | 61.8 | 43.1 | – | – | – | – | – | – | – | – | – | – | – |
| COc1ccc(-c2cc(=O)c3ccccc3o2)cc1N | > 100 | > 100 | > 100 | > 100 | > 100 | > 100 | > 100 | > 100 | > 100 | – | – | – | – | – | – | – | – | – | – |
| COc1ccc(/C(=N\NC(=O)C(=O)NN)C(c2ccc(OC)cc2)C2(O)C(=O)Nc3ccccc32)cc1 (configuration not stated) | > 100 | > 100 | – | > 100 | > 100 | > 100 | > 100 | > 100 | > 100 | – | – | – | – | – | – | – | – | – | – |
| Cn1nc(-c2ccccc2)c(C(=O)/C=C/c2ccc(Cl)cc2)c(N2CCCCC2)c1=O | 4.35 | 6.9 | 5.56 | 9.17 | 5.68 | 7.4 | 5.07 | 6.75 | – | – | – | – | – | – | – | – | – | – | – |
| C[C@]12CCC(=O)C(O)=C1CC[C@@H]1C2CC[C@]2(C)NC(=O)CCC12 (some centres not stated) | > 100 | > 100 | > 100 | > 100 | > 100 | > 100 | > 100 | > 100 | > 100 | – | – | – | – | – | – | – | – | – | – |
| CC(C)(C)CC(C)(C)c1cc2c(O)c(c1)Cc1cc(C(C)(C)CC(C)(C)C)cc(c1O)Cc1cc(C(C)(C)CC(C)(C)C)cc(c1O)Cc1cc(C(C)(C)CC(C)(C)C)cc(c1O)Cc1cc(C(C)(C)CC(C)(C)C)cc(c1O)C2 | > 100 | > 100 | > 100 | > 100 | > 100 | > 100 | > 100 | > 100 | > 100 | – | – | – | – | – | – | – | – | – | – |
| CCN(CC)CCC(=O)c1ccc(C)cc1 | 63.1 | 49.6 | 31.2 | 35.8 | > 100 | > 100 | – | – | 42.4 | > 100 | – | – | – | – | – | – | – | – | – |
| Cc1cccc(C)c1CO | > 100 | > 100 | > 100 | > 100 | > 100 | > 100 | > 100 | > 100 | > 100 | – | – | – | – | – | – | – | – | – | – |
| CC1=C[C@]2(O)C(=O)[C@H](C)C[C@H]3[C@@H](CC[C@@](C)(O)/C=C\2C1=O)C3(C)C | 30.6 | > 71.6 | > 100 | 39.9 | > 70.3 | > 57.6 | 33.4 | 52.3 | 54.4 | – | – | – | – | – | – | – | – | – | – |
| C=C1C(=O)O[C@H]2[C@H]1CC/C(COC(=O)c1cc3ccccc3o1)=C\CC[C@@]1(C)O[C@@H]21 | 3.15 | 2.21 | 4.03 | 3.13 | 7.07 | 4.51 | – | – | 3.27 | 2.45 | 1.55 | 0.829 | 0.335 | 1.43 | 1.18 | 2.48 | 2 | 1.66 | – |
| Cc1occc1C(=S)Nc1ccc(Cl)c(C(=O)OC(C(C)C)C(C)C)c1 | 34.4 | 33.5 | 33 | 35.3 | 42.3 | 31.6 | – | – | 26 | 32 | – | – | – | – | – | – | – | – | – |
| CCOc1ccc(N=Cc2ccc3cc(C)ccc3n2)cc1 | > 100 | > 100 | 60.6 | > 100 | > 100 | > 100 | > 100 | > 100 | > 100 | – | – | – | – | – | – | – | – | – | – |
| O=C(c1ccccc1)c1c(-c2ccccc2)sc2nc3ccccc3nc12 | > 100 | > 100 | > 100 | > 100 | > 100 | > 100 | > 100 | > 100 | > 100 | – | – | – | – | – | – | – | – | – | – |
| CC(=O)[CH-]C(=O)c1ccccc1.CC(=O)[CH-]C(=O)c1ccccc1.CC(C)CCCC(C)[C@H]1CCC2[C@@H]3CC=C4C[C@@H]([O-])CC[C@]4(C)C3CC[C@@]21C.CC(C)CCCC(C)[C@H]1CCC2[C@@H]3CC=C4C[C@@H]([O-])CC[C@]4(C)C3CC[C@@]21C.[Ti+4] (some centres not stated) | > 100 | > 100 | > 100 | > 100 | > 100 | > 100 | – | > 100 | – | – | > 100 | > 100 | > 100 | > 100 | – | > 100 | > 100 | – | > 100 |
| O=c1cc(N2CCN(CCCCCOc3cc(O)c4c(=O)cc(-c5ccccc5)oc4c3)CC2)c2ccccc2o1 | > 100 | > 100 | > 100 | > 100 | > 100 | > 100 | – | – | > 100 | > 100 | 70.5 | 17.4 | 19.3 | 53.2 | 89 | > 100 | > 100 | 39.2 | – |
| O=C(CC(C(=O)c1cccs1)c1cccs1)c1ccsc1 (configuration not stated) | > 100 | > 100 | > 100 | > 100 | > 100 | > 100 | – | – | > 100 | > 100 | – | – | – | – | – | – | – | – | – |
| CCCN(CCC)c1ccc(/C=C/c2ccc3cc(OCC)ccc3n2)cc1 | > 100 | > 100 | > 100 | > 100 | > 100 | > 100 | – | – | > 100 | > 100 | > 100 | 15 | 54.3 | > 100 | > 100 | > 100 | 63.2 | > 100 | – |
| CC(=C/C=C/C=C(C)\C=C\C=C(\C)C(=O)O)/C=C/C=C(/C)C(=O)O | > 100 | > 100 | > 100 | > 100 | > 100 | > 100 | – | – | > 100 | > 100 | – | – | – | – | – | – | – | – | – |
| Cc1nc2sc(C(=O)Nc3cccc4ccccc34)c(N)c2cc1C(O)c1ccccc1 (configuration not stated) | 2.28 | 14.1 | > 100 | 15 | 19.1 | 0.449 | – | – | 21.2 | 6.67 | 0.349 | 0.038 | 0.0409 | 0.0409 | 0.0804 | 0.081 | 0.0381 | 0.0558 | – |
